Literature values as cited in patent US20120302534A1, “DERIVATIVES OF BETULIN” (priority 2010, published 2012).

System: HIV

SMILES: C=C(C)[C@@H]1CC[C@]2(C(=O)O)CC[C@]3(C)[C@H](CC[C@@H]4[C@@]5(C)CC[C@H](OC(=O)CC(C)(C)C(=O)O)C(C)(C)[C@@H]5CC[C@]43C)[C@@H]12 [Bevirimat]
- reduced HIV viral load by a mean of (patients who achieved trough levels of >=20 μg/mL and without key baseline Gag polymorphisms at Q369, V370 or T371): 1.3 log10/mL
- viral load reduction versus patients without Gag polymorphisms (users with Gag polymorphisms at Q369, V370 or T371): significantly lower load reductions
